# Test results taken from patent publication US6451812B1, “Farnesyl protein transferase inhibitors for treating arthropathies” (Janssen Pharmaceutica N.V., priority 1998, dated 2002).
# Values joined by “and” are separate entries in the source; they are usually repeats but may differ in a detail not shown here. Equal entries are not always repeated. Where two headings read alike, the source gives them in different places.
# Columns and labels:
# DBA1/J mice = assay: Collagen type II induced arthritis, therapeutic treatment (Example 2); assay type: in vivo; settings: for Ankylosis score / Incidence of ankylosis (% of animals affected) / Incidence of arthritis (% of animals affected) / Mean Arthritic Score / Mean number of affected paws: treated day 30-49
# Protocol: Male DBA1/J mice were immunized intradernally with collagen type II emulsified in complete Freund's Adjuvant on day 0 and day 21. Treatment of mice was started on day 30 (10 animals/treatment group; the animals were randomized so that both groups had similar arthritic symptoms at the start). Mice were treated orally with vehicle [DMSO: cremophor: 0.9% NaCl solution, 1:1:8 (v:v:v)] or compound 75 at a dose of 100 mg/kg. Three times per week symptoms of arthritis were scored. Animals were treated till day 49, at day 50 animals were sacrificed, blood was collected for analysis of anti-collagen antibodies, and […].
# Trained lab personnel evaluated the severity and incidence of the arthritic symptoms at regular intervals without knowing which animals had received vehicle or drug.
# In Table 14, the mean arthritic score is shown. For each paw, a score ranging from 0 (normal) to 2 (maximal redness and swelling) is given. The score for the 4 paws is summed up and averaged for the 10 animals per group (=Mean arthritic score).
# Table 16 summarizes the results of the observations for the occurrence of ankylosis as the arthritis progresses. Each paw is scored as follows: 0 for no ankylosis, 1 for ankylosis. Again the results for the four paws are summed up and averaged for the 10 animals. Ankylosis starts to occur around day 30. During the whole treatment period, ankylosis is lower in the drug treated group than in the vehicle treated group.
# In table 19, the radiographic score of the individual mice is depicted. For each paw, a score ranging from 0 (normal) to 2 (deformation of the whole paw was given. The scores of the four paws are summed up.
# Lewis rats = assay type: in vivo; settings: for % change in body-weight #<−21% / % change in body-weight #>10% / % change in body-weight Mean: day 14-21, 6 animals; for % change in swelling Mean / % change in swelling #<80% / % change in swelling #>170% / % change in swelling #>150%: paw swelling day 21 as % of day 14, 6 animals; for % change in swelling #<80%: criterion for anti-inflammatory activity; for % change in swelling #>170%: pro-inflammatory activity; for % change in swelling #>150%: tendency towards pro-inflammatory activity
# Protocol: Male SPF-breeded Lewis rats (Charles River; 225-275 g) were housed in individual cages under standard laboratory conditions (21±2° C.; 65±15% relative humidity; light-dark cycle set at 12 h). Mycobacterium butyricum (heat-killed and suspended in paraffin oil at 5 mg/ml; 0.05 ml) was inoculated intradermally at the tail base of the rats. On day 14 after inoculation, the diameters (Ø) of the hind paws and tibiotarsal joints (ΣØ14) were compared with the initial diameters (ΣØ0) and rats with a significant swelling (ΔØ14-0≧6.0 mm) were assigned to the various treatment groups (n=6; […]).
# Body weight and paw diameters were measured at days 14 and after 1-week treatment at day 21. Diet consumption was also measured and the number of dead animals on day 21 was noted. Paw swelling at day 21 was expressed as a percentage of the initial inflammation at the start of the treatment (day 14). Control animals were included in each experimental session. Test compounds were administered via a medicated diet. For that purpose, compounds were mixed with ground pellets in proportion to give an approximate daily dose. This medicated diet was administered ad libitum during the experimental period. The real dose was calculated by multiplying the consumed amount of diet with the concentration of the test compound in the diet.
# Based on a frequency distribution of a series of control data (n=181), all-or-nothing criteria for drug-induced effects were established. The averaged body weight change during the 1 week experimental period in the control population was a decrease of 7 g. […] In the same set of control animals, paw swelling at day 21 was on the average 117% of the initial value at day 14.
# [1] = 100 mg/kg orally from day 30, versus vehicle
# [2] = day 22 after immunization, 100 mpk orally
# [3] = day 24 after immunization, 100 mpk orally
# [4] = day 28 after immunization, 100 mpk orally
# [5] = day 29 after immunization, 100 mpk orally
# [6] = day 31 after immunization, 100 mpk orally
# [7] = day 34 after immunization, 100 mpk orally
# [8] = day 36 after immunization, 100 mpk orally
# [9] = day 38 after immunization, 100 mpk orally
# [10] = day 41 after immunization, 100 mpk orally
# [11] = day 43 after immunization, 100 mpk orally
# [12] = day 45 after immunization, 100 mpk orally
# [13] = day 48 after immunization, 100 mpk orally
# [14] = day 50 after immunization, 100 mpk orally
# [15] = dose 40 mg/kg via medicated diet
# [16] = dose 80 mg/kg via medicated diet
# [17] = dose 160 mg/kg via medicated diet
compound,measurement,setting,value
"Cn1cncc1C(N)(c1ccc(Cl)cc1)c1ccc2c(c1)c(-c1cccc(Cl)c1)cc(=O)n2C (single isomer, unassigned; (+)) [Compound 75, (+)-6-[amino(4-chlorophenyl)(1-methyl-1H-imidazol-5-yl)methyl]-4-(3-chlorophenyl)-1-methyl-2(1H)-quinolinone]",effect on mean arthritic score (in words),DBA1/J mice; [1],clearly suppresses the arthritic score
same,effect on mean number of affected paws (in words),DBA1/J mice; [1],reduces that number
same,lethalities,"DBA1/J mice; 100 mg/kg orally, day 30-49",no lethalities were observed
same,signs of toxicity,"DBA1/J mice; 100 mg/kg orally, day 30-49",did not show any signs of toxicity
same,"Radiographic score, Average","DBA1/J mice; average of 10 mice, 100 mpk orally, treated day 30-49, radiographs at day 50",2.3
same,Ankylosis score,DBA1/J mice; [2],0.00
same,Incidence of ankylosis (% of animals affected),DBA1/J mice; [2],0%
same,Incidence of arthritis (% of animals affected),DBA1/J mice; [2],0%
same,Mean Arthritic Score,DBA1/J mice; [2],0.00
same,Mean number of affected paws,DBA1/J mice; [2],0.00
same,Ankylosis score,DBA1/J mice; [3],0.00
same,Incidence of ankylosis (% of animals affected),DBA1/J mice; [3],0%
same,Incidence of arthritis (% of animals affected),DBA1/J mice; [3],10%
same,Mean Arthritic Score,DBA1/J mice; [3],0.03
same,Mean number of affected paws,DBA1/J mice; [3],0.10
same,Ankylosis score,DBA1/J mice; [4],0.00
same,Incidence of ankylosis (% of animals affected),DBA1/J mice; [4],0%
same,Incidence of arthritis (% of animals affected),DBA1/J mice; [4],90%
same,Mean Arthritic Score,DBA1/J mice; [4],3.50
same,Mean number of affected paws,DBA1/J mice; [4],2.40
same,Ankylosis score,DBA1/J mice; [5],0.00
same,Incidence of ankylosis (% of animals affected),DBA1/J mice; [5],0%
same,Incidence of arthritis (% of animals affected),DBA1/J mice; [5],100%
same,Mean Arthritic Score,DBA1/J mice; [5],4.25
same,Mean number of affected paws,DBA1/J mice; [5],2.70
same,Ankylosis score,DBA1/J mice; [6],0.80
same,Incidence of ankylosis (% of animals affected),DBA1/J mice; [6],60%
same,Incidence of arthritis (% of animals affected),DBA1/J mice; [6],100%
same,Mean Arthritic Score,DBA1/J mice; [6],4.03
same,Mean number of affected paws,DBA1/J mice; [6],2.80
same,Ankylosis score,DBA1/J mice; [7],2.50
same,Incidence of ankylosis (% of animals affected),DBA1/J mice; [7],90%
same,Incidence of arthritis (% of animals affected),DBA1/J mice; [7],100%
same,Mean Arthritic Score,DBA1/J mice; [7],3.80
same,Mean number of affected paws,DBA1/J mice; [7],2.60
same,Ankylosis score,DBA1/J mice; [8],2.40
same,Incidence of ankylosis (% of animals affected),DBA1/J mice; [8],90%
same,Incidence of arthritis (% of animals affected),DBA1/J mice; [8],90%
same,Mean Arthritic Score,DBA1/J mice; [8],3.00
same,Mean number of affected paws,DBA1/J mice; [8],2.20
same,Ankylosis score,DBA1/J mice; [9],2.60
same,Incidence of ankylosis (% of animals affected),DBA1/J mice; [9],100%
same,Incidence of arthritis (% of animals affected),DBA1/J mice; [9],90%
same,Mean Arthritic Score,DBA1/J mice; [9],3.20
same,Mean number of affected paws,DBA1/J mice; [9],2.60
same,Ankylosis score,DBA1/J mice; [10],1.70
same,Incidence of ankylosis (% of animals affected),DBA1/J mice; [10],70%
same,Incidence of arthritis (% of animals affected),DBA1/J mice; [10],90%
same,Mean Arthritic Score,DBA1/J mice; [10],3.45
same,Mean number of affected paws,DBA1/J mice; [10],2.40
same,Ankylosis score,DBA1/J mice; [11],2.20
same,Incidence of ankylosis (% of animals affected),DBA1/J mice; [11],80%
same,Incidence of arthritis (% of animals affected),DBA1/J mice; [11],90%
same,Mean Arthritic Score,DBA1/J mice; [11],2.15
same,Mean number of affected paws,DBA1/J mice; [11],2.20
same,Ankylosis score,DBA1/J mice; [12],1.90
same,Incidence of ankylosis (% of animals affected),DBA1/J mice; [12],80%
same,Incidence of arthritis (% of animals affected),DBA1/J mice; [12],100%
same,Mean Arthritic Score,DBA1/J mice; [12],1.33
same,Mean number of affected paws,DBA1/J mice; [12],1.90
same,Ankylosis score,DBA1/J mice; [13],2.10
same,Incidence of ankylosis (% of animals affected),DBA1/J mice; [13],90%
same,Incidence of arthritis (% of animals affected),DBA1/J mice; [13],60%
same,Mean Arthritic Score,DBA1/J mice; [13],1.58
same,Mean number of affected paws,DBA1/J mice; [13],1.50
same,Incidence of arthritis (% of animals affected),"DBA1/J mice; day 50 after immunization (end of the treatment period), 100 mpk orally",60%
same,Ankylosis score,DBA1/J mice; [14],0.80
same,Incidence of ankylosis (% of animals affected),DBA1/J mice; [14],40%
same,Mean Arthritic Score,DBA1/J mice; [14],0.88
same,Mean number of affected paws,DBA1/J mice; [14],1.20
same,Radiographic score of individual mice,"DBA1/J mice; individual mouse, sum of four paws (0-2 each), 100 mpk orally, treated day 30-49, radiographs at day 50, 100 mg/kg",2.5 (2×) and 1.0 and 0.0 (2×) and 5.25 and 2.0 (2×) and 3.0 and 4.75
same,"Radiographic score, Median","DBA1/J mice; median of 10 mice, 100 mpk orally, treated day 30-49, radiographs at day 50",2.25
same,"arthritic symptoms (paw swelling, occurrence of ankylosis and deterioration of the joints as observed on radiographs)",DBA1/J mice; oral administration to mice with established arthritis,reduces the arthritic symptoms
same,% change in body-weight #<−21%,Lewis rats; [15],0 number of animals
same,% change in body-weight #>10%,Lewis rats; [15],0 number of animals
same,% change in body-weight Mean,Lewis rats; [15],−9%
same,% change in swelling Mean,Lewis rats; [15],94%
same,% change in swelling #<80%,Lewis rats; [15],0 number of animals
same,% change in swelling #>170%,Lewis rats; [15],0 number of animals
same,% change in swelling #>150%,Lewis rats; [15],0 number of animals
same,% change in body-weight #<−21%,Lewis rats; [16],4 number of animals
same,% change in body-weight #>10%,Lewis rats; [16],0 number of animals
same,% change in body-weight Mean,Lewis rats; [16],−19%
same,% change in swelling Mean,Lewis rats; [16],86%
same,% change in swelling #<80%,Lewis rats; [16],3 number of animals
same,% change in swelling #>170%,Lewis rats; [16],0 number of animals
same,% change in swelling #>150%,Lewis rats; [16],0 number of animals
same,% change in body-weight #<−21%,Lewis rats; [17],4 number of animals
same,% change in body-weight #>10%,Lewis rats; [17],0 number of animals
same,% change in body-weight Mean,Lewis rats; [17],−24%
same,% change in swelling Mean,Lewis rats; [17],79%
same,% change in swelling #<80%,Lewis rats; [17],3 number of animals
same,% change in swelling #>170%,Lewis rats; [17],0 number of animals
same,% change in swelling #>150%,Lewis rats; [17],0 number of animals
